The record followed here is ChEMBL document CHEMBL5385935, “Structural Characterization and Rat Aortic Vascular Reactivity of Bradykinin-Potentiating Peptides (BPPs) from the Snake Venom of Bothrops moojeni from Delta do Parnaíba Region, Brazil” (2024).

Assay [1] deals with Thoracic aorta. Kind of assay: Vasorelaxant activity in Wistar rat endothelium-functional thoracic aorta assessed as reduction in phenylephrine-induced isometric contraction. It is filed as tissue-based.
For assay [2], the system named is Thoracic aorta. Kind of assay: Vasorelaxant activity in Wistar rat endothelium-functional thoracic aorta assessed as reduction in phenylephrine-induced isometric contraction by measuring maximal efficacy relative to control.

Non-standard residues stand in square brackets, D forms with d. Residues, ends and D or L forms follow the SMILES beside them. pGlu = O=C1CC[C@@H](C(=O)O)N1

As a reminder, the Emax is the greatest response seen or fitted, relative to the assay's reference.

For `CC[C@H](C)[C@H](NC(=O)[C@H](CCC(=O)O)NC(=O)[C@@H]1CCCN1C(=O)CNC(=O)[C@@H]1CCCN1C(=O)[C@H](CCCNC(=N)N)NC(=O)[C@@H]1CCCN1C(=O)[C@H](Cc1c[nH]c2ccccc12)NC(=O)CNC(=O)CNC(=O)[C@@H]1CCC(=O)N1)C(=O)N1CCC[C@H]1C(=O)N1CCC[C@H]1C(=O)O` ([pGlu]GGWPRPGPEIPP-OH), the Activity entry in the assay with Thoracic aorta [1] is “Dose-Dependent Effect”. The Emax in the assay on Thoracic aorta [2] was 18.3%.

`CC[C@H](C)[C@H](NC(=O)[C@H](CCC(=O)O)NC(=O)[C@@H]1CCCN1C(=O)CNC(=O)[C@@H]1CCCN1C(=O)[C@H](CCCNC(=N)N)NC(=O)[C@@H]1CCCN1C(=O)[C@H](Cc1c[nH]c2ccccc12)NC(=O)[C@H](CCCCN)NC(=O)[C@@H]1CCC(=O)N1)C(=O)N1CCC[C@H]1C(=O)N1CCC[C@H]1C(=O)O` ([pGlu]KWPRPGPEIPP-OH): the Activity entry with Thoracic aorta [1] was “Dose-Dependent Effect”. Also, in the assay with Thoracic aorta [2], the maximal response (Emax) came to 32.8%.

In the case of `CC(C)[C@H](NC(=O)[C@H](CCCCN)NC(=O)[C@@H]1CCCN1C(=O)CNC(=O)[C@@H]1CCCN1C(=O)[C@H](Cc1c[nH]c2ccccc12)NC(=O)[C@H](CCCCN)NC(=O)[C@@H]1CCC(=O)N1)C(=O)N1CCC[C@H]1C(=O)N1CCC[C@H]1C(=O)O` ([pGlu]KWPGPKVPP-OH), the Activity result in the assay on Thoracic aorta [1] was “Dose-Dependent Effect”. Further, the maximal effect (Emax) in the assay on Thoracic aorta [2] was determined as 37.5%.
